What was measured:
[1] = molecular target: ATP-dependent translocase ABCB1 (Mus musculus, UniProt P21447); test: Compound was tested for the binding affinity towards recombinant NBD2 C-terminal cytosolic nucleotide-binding domain of mouse P-Glycoprotein
[2] = Change in Fmax was determined; format: functional

ATP-dependent translocase ABCB1, sequence (P21447 whole entry, the tested form may be a part): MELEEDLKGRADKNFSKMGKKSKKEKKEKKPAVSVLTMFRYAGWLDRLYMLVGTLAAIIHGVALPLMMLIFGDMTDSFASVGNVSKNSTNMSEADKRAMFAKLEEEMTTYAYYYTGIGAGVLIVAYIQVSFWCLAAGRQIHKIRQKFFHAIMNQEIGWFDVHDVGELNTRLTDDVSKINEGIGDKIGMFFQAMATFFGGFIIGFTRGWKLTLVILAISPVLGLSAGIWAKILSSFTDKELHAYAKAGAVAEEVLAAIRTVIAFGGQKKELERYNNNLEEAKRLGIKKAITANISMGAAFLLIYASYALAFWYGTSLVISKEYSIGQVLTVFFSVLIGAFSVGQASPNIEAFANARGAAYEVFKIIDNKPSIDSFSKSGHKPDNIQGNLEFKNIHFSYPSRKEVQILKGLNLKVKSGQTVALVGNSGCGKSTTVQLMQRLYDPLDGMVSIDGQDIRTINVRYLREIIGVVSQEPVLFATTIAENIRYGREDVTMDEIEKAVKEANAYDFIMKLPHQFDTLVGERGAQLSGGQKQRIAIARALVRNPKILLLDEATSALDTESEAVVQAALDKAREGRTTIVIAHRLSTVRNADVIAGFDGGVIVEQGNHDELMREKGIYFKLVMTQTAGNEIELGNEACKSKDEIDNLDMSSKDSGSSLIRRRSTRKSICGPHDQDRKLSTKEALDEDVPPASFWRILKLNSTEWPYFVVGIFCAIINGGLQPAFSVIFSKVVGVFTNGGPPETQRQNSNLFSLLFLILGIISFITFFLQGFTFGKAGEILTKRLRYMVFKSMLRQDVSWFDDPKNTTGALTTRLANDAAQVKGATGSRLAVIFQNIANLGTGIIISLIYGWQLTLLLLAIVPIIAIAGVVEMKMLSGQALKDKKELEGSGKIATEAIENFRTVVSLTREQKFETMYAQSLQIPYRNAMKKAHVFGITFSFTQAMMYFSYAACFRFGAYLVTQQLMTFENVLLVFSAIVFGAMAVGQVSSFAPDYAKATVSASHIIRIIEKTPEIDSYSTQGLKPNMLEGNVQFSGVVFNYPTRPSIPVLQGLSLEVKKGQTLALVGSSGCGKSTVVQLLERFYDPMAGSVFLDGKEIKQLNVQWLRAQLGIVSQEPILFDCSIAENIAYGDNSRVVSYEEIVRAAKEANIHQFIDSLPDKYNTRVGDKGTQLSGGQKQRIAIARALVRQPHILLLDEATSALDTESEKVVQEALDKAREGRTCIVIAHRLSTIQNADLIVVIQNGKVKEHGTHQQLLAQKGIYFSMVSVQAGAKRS

SMILES: COc1cc(C2Oc3cc([C@H]4Oc5cc(O)cc(O)c5C(=O)[C@@H]4O)ccc3OC2CO)ccc1O (some centres undefined) [SILIBININ]
- Kd [1]: 6800 nM
- Delta Fmax [2]: 91%

SMILES: COc1cc(C2Oc3cc(-c4oc5cc(O)c(C/C=C(\C)CCC=C(C)C)c(O)c5c(=O)c4O)ccc3OC2CO)ccc1O (centres undefined)
- Kd [1]: 180 nM
- Delta Fmax [2]: 83.3%

SMILES: COc1cc(C2Oc3cc(-c4oc5c(CC=C(C)C)c(O)cc(O)c5c(=O)c4O)ccc3OC2CO)ccc1O (centres undefined)
- Kd [1]: 250 nM
- Delta Fmax [2]: 93.4%

SMILES: COc1ccc(-c2oc3cc(O)cc(O)c3c(=O)c2O)cc1 [KAEMPFERIDE]
- Kd [1]: 4500 nM

SMILES: O=C1C[C@@H](c2ccc(O)cc2)Oc2cc(O)cc(O)c21 [NARINGENIN]
- Kd [1]: 28500 nM

SMILES: COc1cc(C2Oc3cc(-c4oc5cc(O)c(CC=C(C)C)c(O)c5c(=O)c4O)ccc3OC2CO)ccc1O (centres undefined)
- Kd [1]: 370 nM
- Delta Fmax [2]: 90.3%

SMILES: COc1cc(C2Oc3cc(-c4oc5cc(O)cc(O)c5c(=O)c4O)ccc3OC2CO)ccc1O (centres undefined)
- Delta Fmax [2]: 91%

SMILES: O=C1c2c(O)cc(O)cc2O[C@H](c2ccc(O)c(O)c2)[C@H]1O
- Delta Fmax [2]: 101%

SMILES: COc1cc(C2Oc3cc(-c4oc5c(C/C=C(\C)CCC=C(C)C)c(O)cc(O)c5c(=O)c4O)ccc3OC2CO)ccc1O (centres undefined)
- Kd [1]: 120 nM
- Delta Fmax [2]: 88.1%
